Where a name gives a salt, the structure may show the parent alone. Read-outs that look alike come from different tables or passages of the source.
Assays:
[1] = system: compound 48/80-induced lethality; assay: protection of rats from compound 48/80-induced lethality; type: in vivo, male Wistar rats; settings: Rattus norvegicus, sc, 4 h, s.c., compound 48/80 0.5 mg/kg i.v. 1 hour after treatment, 50% protected against lethality, read-out: 48/80-test ED50
Text: PROTECTION OF RATS FROM COMPOUND 48/80-INDUCED LETHALITY
Compound 48/80, a mixture of oligomers obtained by condensation of 4-methoxy-N-methyl-phenethylamine and formaldehyde has been described as a potent histamine releasing agent (Int. Arch. Allergy, 13, 336 (1958)). The protection from compound 48/80-induced lethal circulatory collapse appears to be a simple way of evaluating quantitatively the antihistaminic activity of test-compounds. Male rats of an inbred Wistar strain, weighing 240-260 g were used in the experiment. After overnight starvation the rats were transferred to conditioned laboratories (temp.=21±1° C., relative humidity=65±5%). The rats were treated subcutaneously or orally with a test compound or with the solvent (NaCl solution, 0.9%). One hour after treatment there was injected intravenously compound 48/80, freshly dissolved in water, at a dose of 0.5 mg/kg (0.2 ml/100 g of body weight). In control experiments, wherein 250 solvent-treated animals were injected with the standard dose of compound 48/80 not more than 2.8% of the animals survived after 4 hours, is therefore considered to be a safe criterion of a protective effect of drug administration.
In this connection the ED50 -values are the minimal doses of the concerned compounds, administered in the subcutaneous way, whereby 50% of the rats are protected against compound 48/80-induced lethality.

[2] = system: serotonin-induced contraction of rat caudal artery; assay: antagonistic activity on the effect of serotonin on the caudal artery of the rat; settings: serotonin 40 ng/ml; minimal concentration reducing contraction amplitude to at least 50% of normal; 5 min
Procedure: ANTAGONISTIC ACTIVITY ON THE EFFECT OF SEROTONIN ON THE CAUDAL ARTERY OF THE RAT
Caudal arteries from fasted male rats (210-235 g) were used in the test. Two helical strips having a length of 5-6 cm and a width of 2 mm. were obtained from each artery and mounted vertically in a 100 ml organ bath containing an oxygenated Krebs-Henseleit solution. Submaximal contractions of the arterial strips were produced by adding single doses of serotonin (40 ng/ml) to the organ bath for 2 minutes with each time an interval of 10 minutes. The amplitude of the contraction was measured before and 5 minutes after adding the drug. After washing out, the agonist was added again three times in order to see whether the contraction was restored and normalized.

[3] = system: apomorphine-induced phenomena: agitation and stereotypic chewing; assay: apomorphine (APO) test in rats, part of the combined APO-TRY-NOR test; type: in vivo, male Wistar rats; settings: Rattus norvegicus, sc, 0.5 h, read-out: ED50 (APO)-rat
[4] = system: norepinephrine-induced mortality; assay: norepinephrine (NOR) test in rats, part of the combined APO-TRY-NOR test; type: in vivo, male Wistar rats; settings: Rattus norvegicus, sc, 2 h, norepinephrine 1.25 mg/kg i.v. at 120 min
Procedure: THE COMBINED APOMORPHINE (APO)-, TRYPTAMINE (TRY)- AND NOREPINEPHRINE (NOR) TEST IN RATS
The experimental animals used in this test were adult male Wistar rats (weight 240±10 g). After an overnight fast, the animals were treated subcutaneously (1 ml/100 g) with an aqueous solution of the compound under investigation (time=zero) and put in isolated observation cages. […] At the end of this 1 hour period (time=90 minutes) the same animals were injected intravenously with 40 mg/kg of tryptamine (TRY) and the presence of the typical tryptamine-induced bilateral tonic seizures was noted. Two hours after pretreatment (time=120 minutes) finally, the same animals were challenged with 1.25 mg/kg intravenously of norepinephrine (NOR) and possible mortality was looked for up to 60 minutes later.
The table 1 gives the ED50 -values of a number of the compounds under consideration. As used herein, the ED50 -value represents the dose which protects 50% of the animals from apomorphine-, tryptamine- or norepinephrine-induced phenomena.

[5] = system: compound 48/80-induced gastric lesions; assay: gastric lesion test: lesions induced by compound 48/80; type: in vivo; settings: Rattus norvegicus, read-out: gastric lesion test ED50
[6] = system: tryptamine-induced bilateral tonic seizures; assay: tryptamine (TRY) test in rats, part of the combined APO-TRY-NOR test; type: in vivo, male Wistar rats; settings: Rattus norvegicus, sc, 1.5 h, tryptamine 40 mg/kg i.v. at 90 min
[7] = system: apomorphine-induced emesis; assay: apomorphine test in dogs (APO-dog); type: in vivo; settings: Canis lupus familiaris, sc; beagle dogs; apomorphine 0.31 mg/kg s.c. 1 hour after compound; protection from emesis
[8] = s.c., rats, apomorphine 1.25 mg/kg i.v. 30 min after compound
[9] = rats, compound 48/80, distension of the stomach completely absent in 50% of rats

Row | SMILES | ED50 [1] [mg/kg] | caudal artery rat ED50 [2] [ng/mL] | ED50 [3, 8] [mg/kg] | ED50 [4] [mg/kg] | ED50 [5, 9] [mg/kg] | ED50 [6] [mg/kg] | ED50 [7] [mg/kg] | ED50 [3] [mg/kg] | ED50 [5] [mg/kg]
1 | Cc1nc2n(c(=O)c1CCN1CCC(C(=O)c3ccc(F)cc3)CC1)CCS2 [compound 1, 6-[2-[4-(4-fluorobenzoyl)-1-piperidinyl]ethyl]-2,3-dihydro-7-methyl-5H-thiazolo[3,2-a]pyrimidin-5-one] | 0.63 | 0.32 | 0.31 | 0.63 | 0.0005 | 0.16 | 0.03 |  | 
2 | Cc1nc2sc(C)c(C)n2c(=O)c1CCN1CCC(c2c[nH]c3ccccc23)CC1 [compound 25, 6-[2-[4-(1H-indol-3-yl)-1-piperidinyl]ethyl]-2,3,7-trimethyl-5H-thiazolo[3,2-a]pyrimidin-5-one] | 0.04 | 0.32 | 0.31 | 0.63 | 0.16 | 0.16 | 0.015 |  | 
3 | Cc1nc2sccn2c(=O)c1CCN1CCC(C)(C(=O)c2ccc(F)cc2)CC1 [compound 9, monohydrochloride] | 0.16 | 0.32 |  | 1.25 | 0.005 | 0.16 | 0.25 | 0.63 | 
4 | Cc1nc2n(c(=O)c1CCN1CC[C@H](c3c[nH]c4ccccc34)[C@H](C)C1)CCS2 (relative stereo) [compound 23, cis-2,3-dihydro-6-[2-[4-(1H-indol-3-yl)-3-methyl-1-piperidinyl]ethyl]-7-methyl-5H-thiazolo[3,2-a]pyrimidin-5-one] | 2.5 |  |  |  | 2.5 |  |  |  | 
5 | Cc1nc2n(c(=O)c1CCN1CCC(c3c[nH]c4ccccc34)CC1)CCCS2 [compound 3, 3,4-dihydro-7-[2-[4-(1H-indol-3-yl)-1-piperidinyl]ethyl]-8-methyl-2H,6H-pyrimido[2,1-b][1,3]thiazin-6-one] | 0.04 | 0.32 |  | 1.25 | 0.02 | 0.63 | 0.015 | 0.63 | 
6 | Cc1nc2sccn2c(=O)c1CCN1CCC(c2c[nH]c3ccccc23)CC1 [compound 12, 6-[2-[4-(1H-indol-3-yl)-1-piperidinyl]ethyl]-7-methyl-5H-thiazolo[3,2-a]pyrimidin-5-one] | 0.02 | 0.08 | 0.08 | 0.31 | 0.08 | 0.08 | 0.08 |  | 
7 | Cc1nc2sccn2c(=O)c1CCN1CCC(c2c[nH]c3ccc(Cl)cc23)CC1 [compound 21, 6-[2-[4-(5-chloro-1H-indol-3-yl)-1-piperidinyl]ethyl]-7-methyl-5H-thiazolo[3,2-a]pyrimidin-5-one] | 2.5 |  |  | 1.25 |  |  |  | 0.63 | 1.25
8 | Cc1nc2scc(C)n2c(=O)c1CCN1CCC(c2c[nH]c3ccc(F)cc23)CC1 [compound 20, 6-[2-[4-(5-fluoro-1H-indol-3-yl)-1-piperidinyl]ethyl]-3,7-dimethyl-5H-thiazolo[3,2-a]pyrimidin-5-one] | 0.63 | 0.31 |  |  | 0.31 | 0.63 | 0.12 | 1.25 | 
9 | Cc1nc2sc3ccccc3n2c(=O)c1CCN1CCC(C(=O)c2ccc(F)cc2)CC1 [compound 6, 3-[2-[4-(4-fluorobenzoyl)-1-piperidinyl]ethyl]-2-methyl-4H-pyrimido[2,1-b]benzothiazol-4-one] | 0.16 | 0.14 | 5 | 0.31 |  | 0.02 | 1.8 |  | 0.08
10 | Cc1nc2sccn2c(=O)c1CCN1CCC(C(=O)c2ccc(F)cc2)(c2ccccc2)CC1 [compound 10, 6-[2-[4-(4-fuorobenzoyl)-4-phenyl-1-piperidinyl]ethyl]-7-methyl-5H-thiazolo-[3,2-a]pyrimidin-5-one] |  |  |  |  | 2.5 |  |  |  | 
11 | Cc1nc2n(c(=O)c1CCN1CCC(c3c[nH]c4ccccc34)CC1)CCS2 [compound 15, 2,3-dihydro-6-[2-[4-(1H-indol-3-yl)-1-piperidinyl]-ethyl]-7-methyl-5H-thiazolo[3,2-a]pyrimidin-5-one] | 0.02 | 0.31 |  | 1.25 | 0.04 |  | 0.008 | 1.25 | 
12 | Cc1nc2sc(C)c(C)n2c(=O)c1CCN1CCC(C(=O)c2ccc(F)cc2)CC1 [compound 24, 6-[2-[4-(4-fluorobenzoyl)-1-piperidinyl]ethyl]-2,3,7-trimethyl-5H-thiazolo[3,2-a]pyrimidin-5-one] | 0.08 |  | 0.63 | 0.63 | 0.01 | 0.04 | 0.12 |  | 
13 | Cc1nc2scc(C)n2c(=O)c1CCN1CCC(C(=O)c2ccc(F)cc2)CC1 [compound 4, 6-[2-[4-(4-fluorobenzoyl)-1-piperidinyl]ethyl]-3,7-dimethyl-5H-thiazolo[3,2-a]pyrimidin-5-one] | 0.31 | 0.32 |  | 1.25 | 0.01 | 0.005 |  | 0.16 | 
14 | Cc1nn2c(=O)c(CCN3CCC(C(=O)c4ccc(F)cc4)CC3)c(C)nc2s1 [compound 7] | 0.16 | 1.25 |  | 0.63 | 0.0025 | 0.31 | 0.5 | 2.5 | 
15 | Cc1nc2sc3c(n2c(=O)c1CCN1CCC(C(=O)c2ccc(F)cc2)CC1)CCC3 [compound 8, 3-[2-[4-(4-fluorobenzoyl)-1-piperidinyl]ethyl]7,8-dihydro-2-methyl-4H,6H-cyclopenta[4,5]thiazolo[3,2-a]pyrimidin-4-one] | 0.31 | 0.32 |  | 0.63 |  | 0.31 | 0.25 | 1.25 | 0.04
16 | Cc1nc2scc(C)n2c(=O)c1CCN1CCC(c2c[nH]c3ccccc23)CC1 [compound 11, 6-[2-[4-(1H-indol-3-yl)-1-piperidinyl]ethyl]-3,7-dimethyl-5H-thiazolo[3,2-a]pyrimidin-5-one] | 0.08 | 0.14 | 0.08 | 0.16 | 0.0025 | 0.04 | 0.004 |  | 
17 | Cc1nc2sc3ccccc3n2c(=O)c1CCN1CCC(c2c[nH]c3ccccc23)CC1 [compound 13, 3-[2-[4-(1H-indol-3-yl)-1-piperidinyl]ethyl]-2-methyl-4H-pyrimido[2,1-b]benzothiazol-4-one] | 0.63 | 0.32 |  | 0.16 | 0.04 | 0.31 |  | 1.25 | 
18 | Cc1nn2c(=O)c(CCN3CCC(c4c[nH]c5ccccc45)CC3)c(C)nc2s1 [compound 14, 6-[2-[4-(1H-indol-3-yl)-1-piperidinyl]ethyl]-2,7-dimethyl-5H-1,3,4-thiadiazolo[3,2-a]pyrimidin-5-one] | 0.04 | 0.56 | 5 | 0.63 | 0.04 | 1.25 |  |  | 

Source: US4548938A, “5-H-1,3,4-thiadiazolo[3,2-a]pyrimidin-5-one compounds” (Janssen Pharmaceutica N.V., priority 1985, dated 1985)
